From patent US6303630A, “Diarylsulfone non-nucleoside reverse transcriptase inhibitors of human immunodeficiency virus” (University of the Sciences in Philadelphia, priority 2000, dated 2001)
Read-outs that look alike come from different tables or passages of the source.

Tests used:
[1] = system: HIV-1; experiment: NCI in vitro anti-HIV drug screen: XTT-formazan assay, protection of T4 lymphocytes (CEM) from HIV-1 cytopathic effects; assay type: cell-based, human immunodeficiency virus (HIV-1); conditions: for EC50 / inhibition at 200 µM / inhibition at 20 µM / inhibition at 2 µM / inhibition at 0.2 µM / inhibition at 63.2 µM / inhibition at 6.33 µM / inhibition at 0.634 µM / inhibition at 0.0635 µM: Human immunodeficiency virus 1, CCRF-CEM; for EC50: 144 h, HIV-1 infected CEM cells, 6 days, XTT, approximate values, read-out: EC50 (50% effective concentration against HIV cytopathic effects); for inhibition at 200 µM / activity at 200 µM: dose 2.00 × 10^-4 Molar; for inhibition at 20 µM / activity at 20 µM: dose 2.00 × 10^-5 Molar; for inhibition at 2 µM / activity at 2 µM: dose 2.00 × 10^-6 Molar; for inhibition at 0.2 µM / activity at 0.2 µM: dose 2.00 × 10^-7 Molar; for inhibition at 63.2 µM / activity at 63.2 µM: dose 6.32 × 10^-5 Molar; for inhibition at 6.33 µM / activity at 6.33 µM: dose 6.33 × 10^-6 Molar; for activity at 200 µM / activity at 20 µM / activity at 2 µM / activity at 0.2 µM / activity at 63.2 µM / activity at 6.33 µM / activity at 0.634 µM / activity at 0.0635 µM: Human immunodeficiency virus 1, Lymphocyte, read-out: Percent of Control, Infected; for TI50 (IC/EC), Therapeutic Index: IC50/EC50
Protocol: Compounds of the present invention were evaluated for anti-HIV efficacy by the National Cancer Institute's (NCI) In Vitro Anti AIDS Drug Discovery Program.
(§1) The NCI procedure is fully described, for example, in a bulletin provided by the National Institutes of Health, National Cancer Institute, Bethesda, Md. 20892, all of which is incorporated herein by reference. As related in the NCI bulletin, the procedure is based on O. W. Weislow et al., "New soluble-formazan assay for HIV-1 cytopathic effects: application to high flux screening of synthetic and natural products for AIDS-antiviral activity", J. Natl. Cancer Inst. 81:577-586 (1989), and is used to test for compounds active against human immunodeficiency virus (HIV), and is designed to detect compounds active at any stage of the virus reproductive cycle. As further related in the NCI bulletin, the assay includes killing of T4 lymphocytes by HIV. Amounts of HIV are added to cells, with a minimum of two cycles of virus reproduction found to be necessary to obtain the required cell killing. Compounds that interact with virions, cells, or virus gene-products to interfere with viral activities will protect cells from cytolysis. All were compared with a positive (e.g., AZT-treated) control evaluation at the same time under identical conditions. The procedure is set forth as follows:
(§2) A candidate compound is first dissolved in a suitable solvent, preferably dimethyl sulfoxide, then diluted 1:100 in cell culture medium before preparing serial half-log10 dilutions. T4 lymphocytes (CEM cell line) are then added and after a brief interval HIV-1 is added, resulting in a 1:200 final dilution of the compound. Uninfected cells with the compound serve as a toxicity control, and infected and uninfected without the compound serve as basic controls. Cultures are then incubated at 37° in a 5% carbon dioxide atmosphere for 6 days. The tetrazolium salt, XTT, is added to all wells, and cultures are incubated to allow formazan color development by viable cells. Individual wells are analyzed spectrophotometrically to quantitate formazan product, and in addition are viewed microscopically for detection of viable cells and confirmation of protective activity. Drug-treated virus-infected cells are compared with drug-treated noninfected cells and with other appropriate controls (untreated infected and untreated noninfected cells, drug-containing wells without cells, etc.) on the same plate. Data are reviewed in comparison with other tests performed at the same time and a determination as to activity is made.

[2] = system: T4 lymphocytes (CEM cell line); experiment: Cell growth / toxicity control in uninfected T4 lymphocytes (CEM), XTT-formazan; assay type: cell-based; conditions: Homo sapiens, CCRF-CEM; for IC50: 144 h, approximate values; for activity at 200 µM: dose 2.00 × 10^-4 Molar; for activity at 200 µM / activity at 20 µM / activity at 2 µM / activity at 0.2 µM / activity at 63.2 µM / activity at 6.33 µM / activity at 0.634 µM / activity at 0.0635 µM: read-out: Percent of Control, Uninfected; for activity at 20 µM: dose 2.00 × 10^-5 Molar; for activity at 2 µM: dose 2.00 × 10^-6 Molar; for activity at 0.2 µM: dose 2.00 × 10^-7 Molar; for activity at 63.2 µM: dose 6.32 × 10^-5 Molar; for activity at 6.33 µM: dose 6.33 × 10^-6 Molar; for activity at 0.634 µM: dose 6.34 × 10^-7 Molar; for activity at 0.0635 µM: dose 6.35 × 10^-8 Molar
Excerpt: as §1, §2

[3] = read-out: Percent of Protection
[4] = dose 6.34 × 10^-7 Molar, read-out: Percent of Protection
[5] = dose 6.35 × 10^-8 Molar, read-out: Percent of Protection
[6] = uninfected CEM cells, 6 days, XTT, read-out: IC50 (50% inhibitory concentration for cell growth)

Row | Structure (SMILES) | EC50 [1] | inhibition at 200 µM [1, 3] | inhibition at 20 µM [1, 3] | inhibition at 2 µM [1, 3] | inhibition at 0.2 µM [1, 3] | inhibition at 63.2 µM [1, 3] | inhibition at 6.33 µM [1, 3] | activity at 200 µM [1] | activity at 20 µM [1] | activity at 2 µM [1] | activity at 0.2 µM [1] | activity at 63.2 µM [1] | activity at 6.33 µM [1] | activity at 0.634 µM ([1]; dose 6.34 × 10^-7 Molar) | activity at 0.0635 µM ([1]; dose 6.35 × 10^-8 Molar) | TI50 (IC/EC), Therapeutic Index [1] | activity at 200 µM [2] | activity at 20 µM [2] | activity at 2 µM [2] | activity at 0.2 µM [2] | further results
1 | CCNc1ccccc1S(=O)(=O)c1ccccc1[N+](=O)[O-] [Compound 81, 2-(2-NITROPHENYLSULFONYL)-N-ETHYLANILINE] | 2.32 µM | 17.2% | 53.6% | 46.1% | 1.5% | -15% | 81.4% | 43.7% | 68.5% | 63.3% | 33% | 21.8% | 87.3% | 53.3% | 36.1% | 1.39 × 10^+1 | 13.7% | 68.6% | 89% | 70.7% | inhibition at 0.634 µM [1, 4]: 31.3%; inhibition at 0.0635 µM [1, 5]: 5.99%; IC50 [2, 6]: 32.2 µM; activity at 63.2 µM [2]: 23.6%; activity at 6.33 µM [2]: 83.1%; activity at 0.634 µM [2]: 89.4%; activity at 0.0635 µM [2]: 93.7%
2 | O=S(=O)(c1ccccc1)c1cccc2c1NCCC2 [Compound 45, 8-(phenylsulfonyl)-1,2,3,4-tetrahydroquinoline] | 14 µM | 42.2% | 67% | 2.49% | 0.38% | 59.8% | 13.3% | 43.3% | 67.7% | 4.44% | 2.37% | 60.6% | 15.1% | 2.22% | 0.49% | 1.43 × 10^+1 | 62.1% | 101% | 93.3% | 84.2% | inhibition at 0.634 µM ([1]; read-out: Percent of Protection, dose 6.34 × 10^-7 Molar): 0.22%; inhibition at 0.0635 µM ([1]; read-out: Percent of Protection, dose 6.35 × 10^-8 Molar): -1.54%; IC50 ([2]; read-out: IC50 (50% inhibitory concentration for cell growth), uninfected CEM cells, 6 days, XTT): > 200 µM; activity at 63.2 µM [2]: 74.2%; activity at 6.33 µM [2]: 94.3%; activity at 0.634 µM [2]: 89.7%; activity at 0.0635 µM [2]: 87.2%
3 | CNc1ccc(S(=O)(=O)c2ccccc2[N+](=O)[O-])cc1Cl [Compound 77, 4-(2-nitrophenylsulfonyl)-2-chloro-N-methylaniline] | 0.119 µM | 100% | 96.7% | 100% | 82% | 106% | 99.5% | 100% | 96.8% | 100% | 82.9% | 106% | 99.5% | 90.3% | 16.7% | > 1.69 × 10^+3 | 111% | 89.7% | 110% | 106% | inhibition at 0.634 µM [1, 4]: 89.8%; inhibition at 0.0635 µM [1, 5]: 12.3%; IC50 [2, 6]: > 200 µM; activity at 63.2 µM [2]: 95.2%; activity at 6.33 µM [2]: 100%; activity at 0.634 µM [2]: 107%; activity at 0.0635 µM [2]: 111%
4 | CNc1ccccc1S(=O)(=O)c1ccccc1Cl [Compound 82, 2-(2-CHLOROPHENYSULFONYL)-N-METHYLANILINE] | 29.7 µM | 3.76% | 41.4% | -5.07% | -22.6% | 68.1% | 24.5% | 34.6% | 60.1% | 28.6% | 16.6% | 78.3% | 48.6% | 26% | 48.1% | 4.93 × 10^0 | 33.9% | 78.2% | 91.2% | 60.8% | inhibition at 0.634 µM [1, 4]: -8.87%; inhibition at 0.0635 µM [1, 5]: 23.7%; IC50 [2, 6]: 146 µM; activity at 63.2 µM [2]: 93.3%; activity at 6.33 µM [2]: 84.2%; activity at 0.634 µM [2]: 96.1%; activity at 0.0635 µM [2]: 93.2%
